Source: patent publication US6562873B2, “Compositions containing therapeutically active components having enhanced solubility” (Allergan, Inc., priority 2000, dated 2003)
Read-outs that look alike come from different tables or passages of the source. Marks after values point to notes of the source that are not given here.

What was measured:
[1] = for Solubility of Brimonidine tartrate (%): 15 days; for soluble Brimonidine tartrate: FIG. 1
Method: The pH-solubility profiles of Brimonidine tartrate in compositions (solutions) containing SECs and oxy-chloro components were determined. Particularly, the effects of sodium carboxymethylcellulose (CMC), an SEC, on the solubility of Brimonidine tartrate at various pH conditions were determined. The various concentrations of CMC tested with Brimonidine tartrate were 0%, 0.056%, 0.17%, 0.5%, 1.5% (w/v), Table III.
The samples tested also contained isotonic components, buffer components, and stabilized chlorine dioxide (Purite™), Table III. Sodium carboxymethyl-cellulose, sodium chloride, potassium chloride, calcium chloride dihydrate, and magnesium chloride hexahydrate were USP grade. Boric acid and sodium borate decahydrate were NF grade.
Each sample (1 through 5) was subjected to a range of pH's from about 7 to about 10. The vials containing the sample solutions were placed on a laboratory rotator and left for equilibration for fifteen days at room temperature (^˜21° C.). The sample solutions were filtered using a 25 mm diameter polysulfone cellulose acetate syringe type filter with 0.45 μm pore size. The filtered solutions were assayed for Brimonidine.
Conventional HPLC and detection techniques were used to detect and determine the concentrations of soluble Brimonidine tartrate. […] The solubility is plotted against pH for each CMC concentration. The experimental data points were fitted to a modified Henderson-Hasselbalch equation using a nonlinear least squares routine (Deltagraph version 4.0 DeltaPoint, Inc.), FIG. 1.

[2] = for Solubility: 23° C., 2 days stirring, theoretical concentration based on sample weight, all dissolved
Method: Table 1. It will be understood that concentrations of adrenergic agonists other than 0.5% may be used, so long as they have therapeutic activity. Likewise, the temperature may be varied, for example, solubility curves may be performed at 37° C. (98.6° F.). The formulation vehicle was prepared by first dissolving polyvinyl alcohol (PVA) in water. The PVA was added to approximately ⅓ of the required total amount of purified water with constant stirring. The slurry was stirred for 20-30 minutes and then heated to 80-95° C. with constant stirring. The mixture was removed from the heat source within 1 hour after having reached the temperature of 80-90° C. and stirred for an additional 10 minutes to ensure homogeneity (Part I). The other ingredients of the Ophthalmic Solution, except for Brimonidine tartrate, were dissolved in a separate container with an additional ⅓ of the required total amount of purified water (Part II). The PVA mixture (Part I) was then quantitatively transferred to Part II using several rinse volumes of purified water. The solution was adjusted to final volume with purified water without pH adjustment.
Brimonidine tartrate was weighed and transferred to a 10 mL test tube containing 5 mL of the formulation vehicle described above. The pH of each sample was then adjusted to a desired value using dilute sodium hydroxide and/or dilute hydrochloric acid. The samples were placed in a rack on a stir plate and stirred at high speed to achieve uniform mixing for 2 days; a partition was placed between the rack and the stir plate to prevent any heat diffusion from the stir plate to the samples.
At the end of two days of stirring, the pH value of each sample was measured, and then approximately 1 mL of each sample was placed in a micro centrifuge tube (polypropylene) and centrifuged at 4,000 rpm for 10 minutes. The supernatant was filtered through a 1 μm filter unit (Whatman, 13 mm, PTFE). The first 3-4 drops of the filtrate were discarded; the rest of the filtrate was received and diluted quantitatively with HPLC mobile phase. […] A control of […] Brimonidine tartrate was prepared in the formulation vehicle at pH 6.3-6.5 and assayed before (untreated) and after (treated) centrifugation and filtration. This was done to evaluate the potential loss of Brimonidine tartrate in these two steps of the sample preparation. To ensure reproducibility, the study was repeated on consecutive days.

## 5-bromo-6-(2-imidozolin-2-ylamino) quinoxaline [Brimonidine tartrate]
[1]; 0% CMC, pH 6.68, room temperature (~21° C.)
  Solubility of Brimonidine tartrate (%): 1.4256%
[1]; 0% CMC, pH 7.11, room temperature (~21° C.)
  Solubility of Brimonidine tartrate (%): 0.2064%
[1]; 0% CMC, pH 7.68, room temperature (~21° C.)
  Solubility of Brimonidine tartrate (%): 0.0786%
[1]; 0% CMC, pH 8.50, room temperature (~21° C.)
  Solubility of Brimonidine tartrate (%): 0.0286%
[1]; 0% CMC, pH 10.09, room temperature (~21° C.)
  Solubility of Brimonidine tartrate (%): 0.0218%
[1]; 0.056% CMC, pH 6.67, room temperature (~21° C.)
  Solubility of Brimonidine tartrate (%): 0.9302%
[1]; 0.056% CMC, pH 7.11, room temperature (~21° C.)
  Solubility of Brimonidine tartrate (%): 0.2828%
[1]; 0.056% CMC, pH 7.77, room temperature (~21° C.)
  Solubility of Brimonidine tartrate (%): 0.0721%
[1]; 0.056% CMC, pH 9.93, room temperature (~21° C.)
  Solubility of Brimonidine tartrate (%): 0.0234%
[1]; 0.17% CMC, pH 6.68, room temperature (~21° C.)
  Solubility of Brimonidine tartrate (%): 1.4200%
[1]; 0.17% CMC, pH 6.93, room temperature (~21° C.)
  Solubility of Brimonidine tartrate (%): 0.7302%
[1]; 0.17% CMC, pH 7.81, room temperature (~21° C.)
  Solubility of Brimonidine tartrate (%): 0.0735%
[1]; 0.17% CMC, pH 8.55, room temperature (~21° C.)
  Solubility of Brimonidine tartrate (%): 0.0328%
[1]; 0.17% CMC, pH 10.05, room temperature (~21° C.)
  Solubility of Brimonidine tartrate (%): 0.0241%
[1]; 0.5% CMC, pH 6.67, room temperature (~21° C.)
  Solubility of Brimonidine tartrate (%): 1.4464%
[1]; 0.5% CMC, pH 7.10, room temperature (~21° C.)
  Solubility of Brimonidine tartrate (%): 0.3693%
[1]; 0.5% CMC, pH 7.56, room temperature (~21° C.)
  Solubility of Brimonidine tartrate (%): 0.1451%
[1]; 0.5% CMC, pH 8.46, room temperature (~21° C.)
  Solubility of Brimonidine tartrate (%): 0.0313%
[1]; 0.5% CMC, pH 9.94, room temperature (~21° C.)
  Solubility of Brimonidine tartrate (%): 0.0250%
[1]; 1.5% CMC, pH 7.35, room temperature (~21° C.)
  Solubility of Brimonidine tartrate (%): 0.1904%
[1]; 1.5% CMC, pH 8.10, room temperature (~21° C.)
  Solubility of Brimonidine tartrate (%): 0.0498%
[1]; 1.5% CMC, pH 8.67, room temperature (~21° C.)
  Solubility of Brimonidine tartrate (%): 0.0311%
[1]; 1.5% CMC, pH 10.11, room temperature (~21° C.)
  Solubility of Brimonidine tartrate (%): 0.0222%
[1]; FIG. 1, 0-1.5% CMC
  effect of CMC concentration on solubility: tends to increase with increasing CMC concentrations
[1]; pH 7.5, 0% CMC
  soluble Brimonidine tartrate: 1000 ppm
[1]; pH 7.5, 0.056% CMC
  soluble Brimonidine tartrate: 1300 ppm
[1]; pH 7.5, 0.17% CMC
  soluble Brimonidine tartrate: 1300 ppm
[1]; pH 7.5, 0.5% CMC
  soluble Brimonidine tartrate: 1600 ppm
[1]; pH 7.5, 1.5% CMC
  soluble Brimonidine tartrate: about 1400 ppm
[2]; Control (treated), formulation vehicle at pH 6.3-6.5, Study 1
  Concentration of Brimonidine tartrate in control after centrifugation and filtration step: 0.484^d % w/v
[2]; Control (untreated), formulation vehicle at pH 6.3-6.5, Study 1
  Concentration of Brimonidine tartrate in control before centrifugation and filtration step: 0.486^c % w/v
[2]; Study 1, sample 1, pH 5.55, Ophthalmic Solution vehicle
  Solubility: ≦164.4^b % w/v
[2]; Study 2, sample 1, pH 5.50, Ophthalmic Solution vehicle
  Solubility: ≦200.6^b % w/v
